The values below come from PMC7204994 (Frontiers in Pharmacology, 2020).

Molecules are shown by their SMILES.

The target in assay [1] is T1, LIMK1 (Homo sapiens, UniProt P53667). As to the kind of experiment: in vitro GST-cofilin phosphorylation by recombinant LIMK1, Western blot, […] compound. The assay is classed as biochemical. Also on record: recombinant human LIMK1 (Millipore #14-656). For orientation: Immunoblotting shows a protein as a band on a membrane.
For assay [2], the target named is T1, LIMK1. As to the kind of experiment: cell-free LIMK1 biochemical assay. The settings on record: cited from earlier work.

T1 sequence (P53667 whole entry): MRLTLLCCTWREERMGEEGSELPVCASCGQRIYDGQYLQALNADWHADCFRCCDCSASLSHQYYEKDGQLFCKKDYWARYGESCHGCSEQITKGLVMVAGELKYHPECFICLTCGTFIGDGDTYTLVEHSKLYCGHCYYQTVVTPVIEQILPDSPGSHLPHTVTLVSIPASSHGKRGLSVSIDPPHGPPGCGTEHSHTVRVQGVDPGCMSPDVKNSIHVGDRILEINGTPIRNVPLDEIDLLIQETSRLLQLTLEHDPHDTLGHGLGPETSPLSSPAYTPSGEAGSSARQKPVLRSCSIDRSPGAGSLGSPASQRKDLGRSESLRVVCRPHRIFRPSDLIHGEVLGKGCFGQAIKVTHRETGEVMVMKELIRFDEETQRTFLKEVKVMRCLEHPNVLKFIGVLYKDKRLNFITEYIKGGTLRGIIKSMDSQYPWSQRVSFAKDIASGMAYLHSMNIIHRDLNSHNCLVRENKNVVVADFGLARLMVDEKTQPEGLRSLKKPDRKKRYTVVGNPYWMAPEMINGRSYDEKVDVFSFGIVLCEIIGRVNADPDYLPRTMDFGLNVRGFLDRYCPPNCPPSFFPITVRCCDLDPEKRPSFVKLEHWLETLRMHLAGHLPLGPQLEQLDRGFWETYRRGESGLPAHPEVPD

In the case of `Cn1cc(-c2[nH]c3cc(NC(=O)C(N)C4CCCCC4)cc4c3c2C=NNC4=O)cn1` (centres unmarked) [PF0477736], the “in vitro GST-cofilin phosphorylation by recombinant LIMK1, Western blot, 10 μM c” value at LIMK1 [1] is “showed that PF0477736 is indeed able to directly inhibit LIMK”.

A word on the IC50: it is the concentration that inhibits the measured activity by half. Turning to `Cc1c[nH]c2ncnc(-c3ccc(NC(=O)N(CCN)c4ccc(Cl)cc4)c(F)c3)c12` [SR10905, 1-(2-aminoethyl)-1-(4-chlorophenyl)-3-(2-fluoro-4-(5-methyl-7H-pyrrolo[2,3-d]pyrimidin-4-yl)phenyl)urea], at LIMK1 [2], the half-maximal inhibitory concentration (IC50) is 0.015 µM.
